Columns and labels:
human TLR7 = human TLR7 (Homo sapiens (Human), UniProt Q9NYK1); experiment: Agonistic activity on human TLR7 in HEK-Blue hTLR7 stably transfected cells; type: cell-based; conditions: for EC50: OD 620 nm
Protocol: The activation effect of the compounds of the present invention on the hTLR7 protein expressed by the HEK-Blue™ hTLR7 stably transfected cells was determined by the following experimental method:
(§1) A bag of HEK-Blue detection dry powder was dissolved in 50 ml of water free of endotoxin, and the solution was then placed in an incubator at 37° C. for 10 minutes followed by sterile filtration to prepare a HEK-Blue detection medium. The compound was firstly formulated into a 20 mM stock solution, then diluted with pure DMSO to a maximum concentration of 6×10^6 nM, and a total of 10 points were obtained by a 3-fold gradient dilution.
(§2) The above formulated compound was firstly diluted 20-fold with the medium, then 20 μl of the diluted compound were added to each well. The supernate was removed from the HEK-Blue™ hTLR7 cells, to which 2-5 ml of pre-warmed PBS were then added. The cells were placed in an incubator for 1-2 minutes, gently pipetted, and counted by trypan blue staining. The cells were re-suspended in the HEK-Blue detection medium to adjust the concentration to 2.2×10^5 cells/ml. 180 μl of cells were added to the above 96-well plate already added with 20 μl of the compounds, and incubated at 37° C. for 6-16 hours.
The activation effect of the compounds of the present invention on human TLR7 can be determined by the above test, and the obtained EC50 values are shown in Table 1.

human TLR8 = human TLR8 (Homo sapiens (Human), UniProt Q9NR97); experiment: Agonistic activity on human TLR8 in HEK-Blue hTLR8 stably transfected cells; type: cell-based; conditions: for EC50: OD 620 nm
Protocol: The activation effect of the compounds of the present invention on the hTLR8 protein expressed by the HEK-Blue™ hTLR8 stably transfected cells was determined by the following experimental method:
as §1, with “dilution. The compound was firstly diluted 20-fold with the medium, then 20 μl of the diluted compound were added to each well.” for “dilution.”
as §2, with “The” for “The above formulated compound was firstly diluted 20-fold with the medium, then 20 μl of the diluted compound were added to each well. The”, “hTLR8” for “hTLR7”
The activation effect of the compounds of the present invention on human TLR8 can be determined by the above test, and the obtained EC50 values are shown in Table 2.

CYP3A4 = CYP3A4 (Homo sapiens (Human), UniProt P08684); experiment: Inhibition of the midazolam metabolite site of CYP3A4 in human liver microsomes; type: in vitro ADME; conditions: probe substrate midazolam
Protocol: The effect of the compounds of the present invention on the enzyme activity of midazolam metabolite site of CYP3A4 in human liver microsomes was determined by the following experimental method:
100 mM PBS buffer was formulated, which was then used to formulate 2.5 mg/ml microsome solution and 5 mM NADPH solution. The 5× concentration of the compound working solution was diluted with PBS gradient (150, 50, 15, 5, 1.5, 0.15, 0.015, 0 μM). The 5× concentration of ketoconazole working solution was diluted with PBS gradient (150, 50, 15, 5, 1.5, 0.15, 0.015, 0 μM). Dextromethorphan working solution was diluted with PBS to a concentration of 50 μM.
20 μl of 2.5 mg/ml microsome solution, 20 μl of 50 μM testosterone working solution, 20 μl of MgCl2 solution and 20 μl of the compound working solution (150, 50, 15, 5, 1.5, 0.15, 0.015, 0 μM, different reaction systems for each concentration) were taken respectively and mixed well. For the positive control group, the compound was replaced with the same concentration of ketoconazole. The mixture together with 5 mM NADPH solution were pre-incubated at 37° C. for 5 minutes. After 5 minutes, 20 μl of NADPH were added to each well, the reaction was started and incubated for 30 minutes. All the incubated samples were present in duplicate. After 30 minutes, 250 μl of acetonitrile containing internal standard were added to all samples, mixed well, shaken at 800 rpm for 10 minutes, and then centrifuged at 3700 rpm for 10 minutes. 80 μl of the supernatant were taken and analyzed by LC-MS/MS.
The data were calculated by Graphpad Prism to obtain the IC50 values of the compounds on the midazolam metabolite site of CYP3A4.

Chain of human TLR8 (Q9NR97 27-1041): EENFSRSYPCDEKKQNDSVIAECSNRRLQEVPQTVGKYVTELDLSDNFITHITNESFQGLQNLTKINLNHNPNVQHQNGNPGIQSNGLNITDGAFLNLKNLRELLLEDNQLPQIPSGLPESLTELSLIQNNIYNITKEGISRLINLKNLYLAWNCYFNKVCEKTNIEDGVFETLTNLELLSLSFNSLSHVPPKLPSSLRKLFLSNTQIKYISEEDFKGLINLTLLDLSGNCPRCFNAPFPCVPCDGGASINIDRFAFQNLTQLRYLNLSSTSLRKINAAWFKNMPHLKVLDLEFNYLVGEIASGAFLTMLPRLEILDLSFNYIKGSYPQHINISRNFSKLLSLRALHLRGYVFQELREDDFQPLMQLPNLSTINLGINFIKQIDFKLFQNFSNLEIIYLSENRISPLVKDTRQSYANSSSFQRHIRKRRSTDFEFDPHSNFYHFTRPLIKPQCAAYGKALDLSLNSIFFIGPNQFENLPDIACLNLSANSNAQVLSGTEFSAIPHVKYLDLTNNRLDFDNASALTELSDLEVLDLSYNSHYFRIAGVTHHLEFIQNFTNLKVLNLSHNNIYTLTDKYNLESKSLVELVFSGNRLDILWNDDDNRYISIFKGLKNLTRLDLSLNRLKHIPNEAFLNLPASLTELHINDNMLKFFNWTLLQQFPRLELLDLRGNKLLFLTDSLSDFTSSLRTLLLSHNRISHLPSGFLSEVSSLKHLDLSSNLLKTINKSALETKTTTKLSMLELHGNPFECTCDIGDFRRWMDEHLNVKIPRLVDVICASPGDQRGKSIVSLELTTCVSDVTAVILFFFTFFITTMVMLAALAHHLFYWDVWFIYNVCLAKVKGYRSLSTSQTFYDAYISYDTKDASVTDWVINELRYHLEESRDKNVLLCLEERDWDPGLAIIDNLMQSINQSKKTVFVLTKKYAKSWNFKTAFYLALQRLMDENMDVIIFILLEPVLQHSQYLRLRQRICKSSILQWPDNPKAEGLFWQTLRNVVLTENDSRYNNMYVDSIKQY
Chain of human TLR7 (Q9NYK1 27-1049): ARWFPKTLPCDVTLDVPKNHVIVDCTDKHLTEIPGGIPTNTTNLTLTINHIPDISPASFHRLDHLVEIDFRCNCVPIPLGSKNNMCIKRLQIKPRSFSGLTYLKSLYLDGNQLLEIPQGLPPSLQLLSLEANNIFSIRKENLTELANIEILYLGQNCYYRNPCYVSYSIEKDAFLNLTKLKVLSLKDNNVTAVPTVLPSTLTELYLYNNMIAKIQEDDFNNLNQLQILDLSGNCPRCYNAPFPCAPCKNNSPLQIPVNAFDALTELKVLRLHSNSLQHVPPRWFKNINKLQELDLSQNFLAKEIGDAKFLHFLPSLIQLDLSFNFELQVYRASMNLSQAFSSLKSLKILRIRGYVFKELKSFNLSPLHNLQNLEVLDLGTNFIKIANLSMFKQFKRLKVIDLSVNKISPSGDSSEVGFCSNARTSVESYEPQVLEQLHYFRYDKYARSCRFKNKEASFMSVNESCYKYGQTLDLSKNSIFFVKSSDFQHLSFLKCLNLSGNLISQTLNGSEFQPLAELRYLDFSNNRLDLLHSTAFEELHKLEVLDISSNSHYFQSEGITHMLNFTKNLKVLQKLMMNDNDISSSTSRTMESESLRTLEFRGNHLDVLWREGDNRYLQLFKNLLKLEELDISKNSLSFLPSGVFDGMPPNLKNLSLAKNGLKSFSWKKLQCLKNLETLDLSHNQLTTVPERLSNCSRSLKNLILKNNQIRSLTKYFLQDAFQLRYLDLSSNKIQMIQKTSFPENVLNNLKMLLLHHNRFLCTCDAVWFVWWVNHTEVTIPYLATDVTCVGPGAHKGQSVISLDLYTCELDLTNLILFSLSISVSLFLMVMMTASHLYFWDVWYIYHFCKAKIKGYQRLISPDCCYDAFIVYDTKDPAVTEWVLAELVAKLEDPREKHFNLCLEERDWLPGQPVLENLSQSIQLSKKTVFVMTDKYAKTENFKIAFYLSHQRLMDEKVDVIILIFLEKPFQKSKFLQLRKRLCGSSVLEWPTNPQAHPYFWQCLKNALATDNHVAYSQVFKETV
Chain of CYP3A4 (P08684 whole entry): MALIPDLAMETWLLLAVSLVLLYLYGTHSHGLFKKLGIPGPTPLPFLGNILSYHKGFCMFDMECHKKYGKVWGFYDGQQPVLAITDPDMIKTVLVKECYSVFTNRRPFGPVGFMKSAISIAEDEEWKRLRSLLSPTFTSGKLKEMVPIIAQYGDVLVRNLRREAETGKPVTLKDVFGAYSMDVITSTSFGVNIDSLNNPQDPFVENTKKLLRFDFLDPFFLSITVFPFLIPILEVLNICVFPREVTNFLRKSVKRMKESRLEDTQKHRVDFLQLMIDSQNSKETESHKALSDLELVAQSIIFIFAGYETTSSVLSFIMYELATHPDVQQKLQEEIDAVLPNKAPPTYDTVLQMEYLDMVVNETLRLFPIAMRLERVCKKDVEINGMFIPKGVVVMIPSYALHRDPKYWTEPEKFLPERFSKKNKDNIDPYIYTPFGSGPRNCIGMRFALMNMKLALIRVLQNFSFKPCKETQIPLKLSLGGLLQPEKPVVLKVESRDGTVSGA

SMILES	Emax (human TLR7) [%]	EC50 (human TLR7) [µM]	Emax (human TLR8) [%]	EC50 (human TLR8) [µM]	IC50 (CYP3A4) [µM]
CCCCOc1nc(N)c2cnn(Cc3cccc(CN4CCCC4)c3)c2n1 [Example 4, 6-Butoxy-1-(3-(pyrrolidin-1-ylmethyl)benzyl)-1H-pyrazolo[3,4-d]pyrimidin-4-amine]	88	0.166	28	> 30	11
COCCOc1nc(N)c2cnn(Cc3ccc(CN4CCCC4)cc3)c2n1 [Example 7, 6-(2-Methoxyethoxy)-1-(4-(pyrrolidin-1-ylmethyl)benzyl)-1H-pyrazolo[3,4-d]pyrimidin-4-amine]	95	0.18	0	> 30	> 30
CCCCOc1nc(N)c2cnn(Cc3ccc(CN4CCC4)cc3)c2n1 [Example 2, 1-(4-(Azetidin-1-ylmethyl)benzyl)-6-butoxy-1H-pyrazolo[3,4-d]pyrimidin-4-amine]	91	0.064	52	> 29	10
CCCCOc1nc(N)c2cnn(Cc3ccc(CN4CCCCC4)cc3)c2n1 [Example 3, 6-Butoxy-1-(4-(piperidin-1-ylmethyl)benzyl)-1H-pyrazolo[3,4-d]pyrimidin-4-amine]	91	0.077	2	> 24	7

From patent US11117898B2, “Pyrazolo-heteroaryl derivative, preparation method and medical use thereof” (Jiangsu Hengrui Medicine Co., Ltd., priority 2016, dated 2021)
